# Measurements published in publication PMC10461224, “Development of an Affinity-Based Probe to Profile Endogenous Human Adenosine A3 Receptor Expression” (Journal of Medicinal Chemistry, 2023).
# Key:
# Format in all cases: binding
# human A1AR (hA1AR) = target: T1, human A1AR (hA1AR) (Homo sapiens, UniProt P30542); assay: Single-point radioligand displacement, [3H]DPCPX; conditions: 1 μM probe; CHO cell membranes; co-incubated with radioligand 30 min at 25 °C; mean of two experiments
# T1 construct: expressed in transfected cells; host or cells: CHO cells (CHOhA1AR), gift of Prof; S.J. Hill, University of Nottingham; membrane fractions
# T1 sequence (P30542 1-326): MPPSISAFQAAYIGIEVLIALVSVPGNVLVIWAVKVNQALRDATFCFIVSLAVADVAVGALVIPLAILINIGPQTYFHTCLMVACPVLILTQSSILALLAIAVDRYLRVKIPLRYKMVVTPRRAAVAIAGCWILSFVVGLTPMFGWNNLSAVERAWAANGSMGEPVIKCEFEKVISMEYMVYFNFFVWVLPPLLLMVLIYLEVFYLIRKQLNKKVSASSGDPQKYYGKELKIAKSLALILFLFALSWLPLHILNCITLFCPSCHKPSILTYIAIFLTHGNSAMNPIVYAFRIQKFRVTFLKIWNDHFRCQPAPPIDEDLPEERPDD
# Protocol: (§1) Membrane aliquots containing 15 μg (CHOhA3AR), 5 μg (CHOhA1AR), or 30 μg (HEK293hA2AAR and CHO-spap-A2BAR) of protein were resuspended in assay buffer (A3AR: 50 mM Tris–HCl, pH 8.0, 10 mM MgCl2, 1 mM EDTA, 0.01% CHAPS; A1AR and A2AAR: 50 mM Tris–HCl, pH 7.4; A2BAR: 50 mM Tris–HCl, pH 7.4, 0.1% CHAPS). […] Nonspecific binding was determined in the presence of 100 μM NECA (A3AR), 100 μM CPA (A1AR), 100 μM NECA (A2AAR), and 10 μM ZM241385 (A2BAR). Incubations were terminated by rapid vacuum filtration to separate the bound and free radioligand through prewetted 96-well GF/C filter plates using a PerkinElmer Filtermate harvester. Filters were subsequently washed 12 times with ice-cold wash buffer (A3AR: 50 mM Tris–HCl, pH 8.0, 10 mM MgCl2, 1 mM EDTA; A1AR and A2AAR: 50 mM Tris–HCl, pH 7.4; A2BAR: 50 mM Tris–HCl, pH 7.4, 0.1% BSA). The plates were dried at 55 °C, and MicroscintTM-20 cocktail (PerkinElmer) was added subsequently.
# (§2) Single point displacement values shown are mean percentages of two individual experiments performed in duplicate. All pKi values shown are mean values ± SEM of three individual experiments performed in duplicate.
# human A2AAR (hA2AAR) = target: T2, human A2AAR (hA2AAR) (Homo sapiens, UniProt P29274); assay: Single-point radioligand displacement, [3H]ZM241385; conditions: 1 μM probe; HEK293 cell membranes; co-incubated with radioligand 30 min at 25 °C; mean of two experiments
# T2 construct: expressed in transfected cells; host or cells: HEK293 cells (HEKhA2AAR), gift of Dr. J. Wang, Biogen; membrane fractions
# T2 sequence (P29274 whole entry): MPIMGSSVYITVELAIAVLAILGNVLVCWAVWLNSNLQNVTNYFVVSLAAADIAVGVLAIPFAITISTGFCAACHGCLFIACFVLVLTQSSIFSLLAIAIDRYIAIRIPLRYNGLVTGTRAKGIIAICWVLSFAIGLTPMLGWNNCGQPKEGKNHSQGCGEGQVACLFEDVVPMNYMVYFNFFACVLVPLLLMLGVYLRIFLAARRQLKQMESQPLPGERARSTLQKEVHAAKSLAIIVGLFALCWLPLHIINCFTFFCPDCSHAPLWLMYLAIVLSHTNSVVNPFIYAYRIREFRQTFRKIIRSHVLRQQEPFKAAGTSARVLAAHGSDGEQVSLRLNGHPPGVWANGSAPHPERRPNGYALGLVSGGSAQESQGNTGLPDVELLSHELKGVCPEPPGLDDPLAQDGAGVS
# Protocol: as §1, §2
# hA1AR = target: T3, hA1AR (Homo sapiens, UniProt P30542); assay: Full curve displacement assays on the hA1AR; conditions: from full curve displacement assays (Table S1)
# T3 construct: expressed in transfected cells; host or cells: CHO cells (CHOhA1AR), gift of Prof; S.J. Hill, University of Nottingham; membrane fractions
# T3 sequence (P30542 1-326): T1 sequence (P30542 1-326)
# Protocol: The affinity of the synthesized AfBPs was determined in radioligand binding experiments. First, single concentration displacement assays were carried out on all four human adenosine receptors, using a final probe concentration of 1 μM (Table 1). […] This quick screen indicated a good selectivity toward the hA3AR over the other human ARs, a trend that was also observed in the case of the parent compound.[34] Next, the ‘apparent’ affinities (depicted as pKi values) toward the hA3AR were determined using full curve displacement assays. To study the presumable covalent mode of action, the apparent affinity was determined with (pre-4 h) and without (pre-0 h) 4 h of pre-incubation of AfBP with hA3AR, prior to addition of radioligand. […] This difference in affinity was reflected in a shift in apparent pKi. […] To further investigate selectivity toward the hA3AR over the hA1AR, full curve displacement assays were carried out on the hA1AR.
# […]. Single point displacement values shown are mean percentages of two individual experiments performed in duplicate. All pKi values shown are mean values ± SEM of three individual experiments performed in duplicate. Statistical analysis was performed using a one-way ANOVA test with multiple comparisons (****p < 0.0001).
# human A2BAR (hA2BAR) = target: T4, human A2BAR (hA2BAR) (Homo sapiens, UniProt P29275); assay: Single-point radioligand displacement, [3H]PSB-603; conditions: 1 μM probe; CHO-spap cell membranes; co-incubated with radioligand 30 min at 25 °C; mean of two experiments
# T4 construct: expressed in transfected cells; host or cells: CHO-spap cells (CHO-spap-hA2BAR), gift of S.J. Dowell, GlaxoSmithKline; membrane fractions
# T4 sequence (P29275 1-332): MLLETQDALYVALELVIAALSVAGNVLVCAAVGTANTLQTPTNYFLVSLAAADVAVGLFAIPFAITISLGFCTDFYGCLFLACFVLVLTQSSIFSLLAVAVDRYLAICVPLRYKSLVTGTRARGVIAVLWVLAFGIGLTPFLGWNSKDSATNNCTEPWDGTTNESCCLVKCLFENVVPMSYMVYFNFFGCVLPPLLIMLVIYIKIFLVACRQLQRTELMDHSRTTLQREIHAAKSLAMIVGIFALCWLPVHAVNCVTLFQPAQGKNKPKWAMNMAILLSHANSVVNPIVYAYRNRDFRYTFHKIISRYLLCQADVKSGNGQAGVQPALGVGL
# Protocol: as §1, §2
Compound,"% specific [3H]DPCPX displacement, hA1AR (human A1AR (hA1AR))","% specific [3H]ZM241385 displacement, hA2AAR (human A2AAR (hA2AAR))",selectivity toward the hA3AR over the hA1AR (hA1AR),"% specific [3H]PSB-603 displacement, hA2BAR (human A2BAR (hA2BAR))"
"C#CCOc1ccn2c(c1)nc1c2c(=O)n(CCC)c(=O)n1CCCNC(=O)c1ccc(S(=O)(=O)F)cc1 [compound 9, 4-((3-(2,4-Dioxo-8-(prop-2-yn-1-yloxy)-3-propyl-3,4-dihydropyrido[2,1-f]purin-1(2H)-yl)propyl)carbamoyl)benzenesulfonyl fluoride]",21%,7%,> 17 fold,1%
"C#CCN(CCCn1c(=O)n(CCC)c(=O)c2c1nc1cc(OC)ccn12)C(=O)c1ccc(S(=O)(=O)F)cc1 [compound 5, 4-((3-(8-Methoxy-2,4-dioxo-3-propyl-3,4-dihydropyrido[2,1-f]purin-1(2H)-yl)propyl)(prop-2-yn-1-yl)carbamoyl)benzenesulfonyl fluoride]",2%,0%,> 100 fold,10%
